The values that follow come from patent US9441012B2, “Fluorinated epoxyketone-based compounds and uses thereof as proteasome inhibitors” (FLUORINOV PHARMA INC., priority 2012, dated 2016).

One may read the IC50 as the midpoint of a concentration-inhibition curve. Low values mean greater potency in that assay, high ones weaker potency in that assay.

One experiment relates to KMS-11. Put plainly: Cell viability assay (MTS). The experiment is classed as cell-based. The settings on record: Homo sapiens, 72 hours, mean ± standard deviation. On the procedure:
(§1) Human multiple myeloma cell lines 8226, H929, JJN3, KMH11, KMS11, KMS18, LP1, MM1S, OPM2 and U266 were grown in Iscove modified Dulbecco's medium (IMDM). Human leukemia cell lines K562, OCI-AML2 and U937 were cultured in RPMI-1640 medium. Primary peripheral blood mononuclear cells were isolated from multiple myeloma patients by Ficoll density gradient centrifugation and bone marrow aspirates were obtained from multiple myeloma patients at the Princess Margaret Cancer Centre of the University Health Network (UHN; Toronto, ON, Canada). Primary cells were cultured in IMDM. The collection and use of human tissue for this study were approved by the UHN institutional ethics review board. All cell culture media were obtained from the Ontario Cancer Institute Tissue Culture Media Facility (Toronto, ON, Canada) and were supplemented with 10% fetal calf serum, […] (Hyclone, Logan, Utah). All cells were grown in a humidified incubator at 37° C. with 5% CO2.
(§2) Cellular viability was primarily assessed by 3-(4,5-dimethylthiazol-2-yl)-5-(3-carboxymethoxyphenyl)-2-(4-sulfophenyl)-2H-tetrazolium (MTS) assay according to the manufacturer's instructions (Promega; Madison, Wis.). Cells were first seeded at a density of 10,000 cells per well in tissue culture-treated 96-well plates. Two hours after seeding, cells were treated with compounds for 72 hours at concentrations as indicated. As a control, cells were treated with DMSO alone in every assay plate. Following treatment and the MTS assay, cell viability was independently confirmed by reading the optical density (O.D.) at 490 nm and by exclusion of trypan blue stain (Invitrogen; Burlington, ON, Canada). The viability of primary mononuclear cells was determined by staining with Annexin V.
(§3) Table 9 summarizes data obtained for representative compounds of Formula I for cell viability and CT-L proteasome activity using OCI-AML-2 and KMS-11 cell lines.

The next experiment concerns OCI-AML-2. Put plainly: Cell viability assay (MTS). It is filed as cell-based. The following applies: Homo sapiens, OCI-AML2, 72 hours, mean ± standard deviation. The procedure:
as §1, §2, §3

Experiment [1] has as its system chymotrypsin-like (CT-L) proteasome activity, KMS-11. Briefly: Proteasome enzymatic activity (tumor cell lysates). It is filed as biochemical, human. The settings on record: KMS-11 cell lysate; mean ± standard deviation. The procedure:
(§4) Cells were harvested by centrifugation at 1,200 rpm at room temperature. Cell pellets were washed with PBS and lysed with assay lysis buffer (50 mM HEPES (N-2-hydroxyethylpiperazine-N′-2-ethanesulfonic acid), pH 7.5; 150 mM NaCl; 1% Triton X-100; 2 mM ATP). Cell lysates were incubated on ice for 30 minutes, mixed by vortex every 5 minutes, and then centrifuged at 12,000 g for 10 minutes. The supernatant was transferred to a 96-well plate. For each assay, 10 μg of total protein were incubated for 1 hour at 37° C. with increasing concentrations (1 nM to 10 μM) of test compound diluted in assay buffer (50 mM Tris-HCl (tris(hydroxymethyl)aminomethane-HCl), pH 7.5; 150 mM NaCl). DMSO alone was used as a control in every assay plate. After incubation, a specific fluorogenic proteasome substrate was added to each assay reaction at a final concentration of 40 μM in a total volume of 100 μL. N-Succinyl-Leu-Leu-Val-Tyr-7-amino-4-methylcoumarin (Suc-Leu-Leu-Val-Tyr-AMC) was used for measuring chymotrypsin-like (CT-L) activity, t-butoxycarbonyl-Leu-Arg-Arg-7-amino-4-methylcoumarin (Boc-Leu-Arg-Arg-AMC) for trypsin-like (T-L) activity, and benzyloxycarbonyl-L-leucyl-L-leucyl-L-glutamyl-7-amino-4-methylcoumarin (Z-Leu-Leu-Glu-AMC) for caspase-like (C-L) activity. The excitation wavelength was set at 360 nm and the fluorescence emission wavelength of AMC was detected at 460 nm. The fluorescence of free AMC released during the enzymatic reaction was measured with a SpectraMax M5 fluorescent spectrophotometric plate reader (Molecular Devices, Sunnyvale, Calif.). AMC release rate was measured at 37° C. in a kinetic mode, recording every 5 minutes for 30 minutes. Experiments were performed in triplicate and repeated at least twice.
as §3

The test system of experiment [2] is chymotrypsin-like (CT-L) proteasome activity, OCI-AML-2. Briefly: Proteasome enzymatic activity (tumor cell lysates). It is filed as biochemical, human. The following applies: OCI-AML-2 cell lysate; mean ± standard deviation. The procedure: as §4, §3
For experiment [3], the system named is primary CD138+ myeloma cells. The following applies: compared with Example 1; Trudel et al. ASH 2009; cited from earlier work.

`CC(C)C[C@H](NC(=O)[C@H](COC(F)F)NC(=O)[C@H](COC(F)F)NC(=O)CN1CCOCC1)C(=O)[C@@]1(C)CO1` [Example 33, (2S)-3-(difluoromethoxy)-N-[(1S)-1-(difluoromethoxymethyl)-2-[[(1S)-3-methyl-1-[(2R)-2-methyloxirane-2-carbonyl]butyl]amino]-2-oxo-ethyl]-2-[(2-morpholinoacetyl)amino]propanamide]: the IC50 in the experiment on KMS-11 came to 46.7 ± 9.89 nM; with OCI-AML-2, 140 ± 53.5 nM; in experiment [1], 704 ± 173 nM; in experiment [2], 599 ± 77.7 nM.
Regarding `CC(C)C[C@H](NC(=O)[C@H](CCc1ccccc1)NC(=O)CN1CCOCC1)C(=O)N[C@@H](Cc1ccccc1)C(=O)N[C@@H](CC(C)C)C(=O)[C@@]1(C)CO1` [carfilzomib], in experiment [3], the “therapeutic index between CD138+ and CD-138− in patient samples” value is “much narrower therapeutic index”.
Consider `CC(C)C[C@H](NC(=O)[C@H](COC(F)F)NC(=O)CN1CCOCC1)C(=O)N[C@@H](Cc1ccccc1)C(=O)[C@@]1(C)CO1` [Example 27, (2S)-N-[(1S)-1-benzyl-2-[(2R)-2-methyloxiran-2-yl]-2-oxo-ethyl]-2-[[(2S)-3-(difluoromethoxy)-2-[(2-morpholinoacetyl)amino]propanoyl]amino]-4-methylpentanamide], for which the IC50 in the experiment with KMS-11 was found to be 250 ± 25.9 nM; in the experiment on OCI-AML-2, 401 ± 275 nM; in experiment [1], 742 ± 83.7 nM; in experiment [2], 600 ± 57.5 nM.
With `CC(C)C[C@H](NC(=O)[C@H](COC(F)F)NC(=O)CN1CCOCC1)C(=O)N[C@@H](CC(C)C)C(=O)[C@@]1(C)CO1` [Example 28, (2S)-2-[[(2S)-3-(difluoromethoxy)-2-[(2-morpholino-acetyl)amino]propa-noyl]amino]-4-methyl-N-[(1S)-3-methyl-1-[(2R)-2-methyloxirane-2-carbonyl]butyl]pentanamide], the 50% inhibitory concentration (IC50) in the experiment with KMS-11 worked out at 100 ± 18.7 nM; in the experiment on OCI-AML-2 it was 132 ± 87.5 nM; in experiment [1] it was 575 ± 62.7 nM; in experiment [2], 556 ± 123 nM.
